According to the OligoGym collection:
HELM strings list units from the 5' end as sugar, base in round brackets, then linkage (d deoxyribose, r ribose, m 2'-O-methyl, p phosphodiester). Strings are as the collection lists them, not checked against the first reports. ss, as = sense and antisense strand; [lna] = locked nucleic acid (LNA); [s4r] = 4'-thioribose; [fl2r] = 2'-fluoro

Conditions: siRNA
Note: test system not given here.

Substance	target mRNA knockdown [%]
RNA1{r(C)p.r(U)p.r(C)p.m(U)p.r(G)p.r(G)p.r(C)p.r(C)p.r(U)p.r(U)p.r(U)p.r(C)p.r(U)p.r(C)p.r(U)p.r(C)p.m(U)p.r(A)p.r(G)p.r(T)p.r(T)}|RNA2{r(C)p.r(U)p.r(A)p.r(G)p.r(A)p.r(G)p.r(A)p.r(G)p.r(A)p.r(A)p.r(A)p.r(G)p.r(G)p.r(C)p.m(C)p.r(A)p.r(G)p.r(A)p.r(G)p.r(T)p.r(T)}$$$RNA1{StrandType:ss}|RNA2{StrandType:as}$	45
RNA1{r(G)p.r(G)p.r(C)p.r(U)p.[fl2r](U)p.r(A)p.r(G)p.r(U)p.[fl2r](C)p.r(A)p.r(C)p.r(U)p.r(C)p.r(C)p.r(U)p.r(C)p.r(U)p.r(U)p.r(C)p.r(T)p.r(T)}|RNA2{r(G)p.r(A)p.r(A)p.r(G)p.r(A)p.r(G)p.r(G)p.r(A)p.r(G)p.[fl2r](U)p.r(G)p.r(A)p.r(C)p.[fl2r](U)p.r(A)p.r(A)p.r(G)p.r(C)p.r(C)p.r(T)p.r(T)}$$$RNA1{StrandType:ss}|RNA2{StrandType:as}$	68
RNA1{r(C)p.r(G)p.r(U)p.r(A)p.r(C)p.r(G)p.r(C)p.r(G)p.r(G)p.r(A)p.r(A)p.r(U)p.r(A)p.r(C)p.r(U)p.[s4r](U)p.[s4r](C)p.[s4r](G)p.[s4r](A)p.r(T)p.r(T)}|RNA2{r(U)p.r(C)p.r(G)p.r(A)p.r(A)p.r(G)p.r(U)p.r(A)p.r(U)p.r(U)p.r(C)p.r(C)p.r(G)p.r(C)p.r(G)p.[s4r](U)p.[s4r](A)p.[s4r](C)p.[s4r](G)p.r(T)p.r(T)}$$$RNA1{StrandType:ss}|RNA2{StrandType:as}$	83.4
RNA1{m(G)p.r(C)p.m(U)p.r(U)p.m(U)p.r(A)p.m(A)p.r(G)p.m(G)p.r(A)p.m(A)p.r(C)p.m(U)p.r(G)p.m(G)p.r(A)p.m(A)p.r(G)p.m(G)p.r(T)p.r(T)}|RNA2{r(C)p.m(C)p.r(U)p.m(U)p.r(C)p.m(C)p.r(A)p.m(G)p.r(U)p.m(U)p.r(C)p.r(C)p.r(U)p.r(U)p.r(A)p.r(A)p.r(A)p.r(G)p.r(C)p.r(T)p.r(T)}$$$RNA1{StrandType:ss}|RNA2{StrandType:as}$	25
RNA1{r(A)p.r(G)p.[fl2r](U)p.r(A)p.r(A)p.[fl2r](U)p.[fl2r](C)p.[fl2r](C)p.r(G)p.r(G)p.r(A)p.[fl2r](C)p.[fl2r](U)p.[fl2r](C)p.r(A)p.r(A)p.[fl2r](C)p.[fl2r](U)p.[fl2r](C)p.r(T)p.r(T)}|RNA2{r(G)p.r(A)p.r(G)p.r(U)p.r(U)p.r(G)p.r(A)p.r(G)p.r(U)p.r(C)p.r(C)p.r(G)p.r(G)p.r(A)p.r(U)p.r(U)p.r(A)p.r(C)p.r(U)p.r(T)p.r(T)}$$$RNA1{StrandType:ss}|RNA2{StrandType:as}$	59
RNA1{r(C)p.r(C)p.r(G)p.r(A)p.r(A)p.r(G)p.r(A)p.r(C)p.r(G)p.r(A)p.r(A)p.r(G)p.r(C)p.r(U)p.r(A)p.r(U)p.r(G)p.r(A)p.r(A)p.r(T)p.r(T)}|RNA2{r(U)p.r(U)p.r(C)p.r(A)p.[fl2r](U)p.r(A)p.r(G)p.r(C)p.r(U)p.r(U)p.r(C)p.r(G)p.r(U)p.r(C)p.r(U)p.r(U)p.r(C)p.r(G)p.r(G)p.r(T)p.r(T)}$$$RNA1{StrandType:ss}|RNA2{StrandType:as}$	47
RNA1{r(U)p.r(U)p.r(U)p.r(C)p.r(C)p.r(C)p.r(C)p.r(C)p.r(A)p.r(G)p.r(G)p.[fl2r](U)p.r(A)p.r(A)p.r(C)p.r(G)p.r(A)p.r(U)p.r(U)p.r(T)p.r(T)}|RNA2{r(A)p.r(A)p.r(U)p.r(C)p.r(G)p.r(U)p.[fl2r](U)p.r(A)p.r(C)p.r(C)p.r(U)p.r(G)p.r(G)p.r(G)p.r(G)p.r(G)p.r(A)p.r(A)p.r(A)p.r(T)p.r(T)}$$$RNA1{StrandType:ss}|RNA2{StrandType:as}$	75
RNA1{r(C)p.r(U)p.r(C)p.m(C)p.r(C)p.m(C)p.r(A)p.r(G)p.r(U)p.m(C)p.r(U)p.r(C)p.r(U)p.r(C)p.r(U)p.m(U)p.r(A)p.r(A)p.r(A)p.r(T)p.r(T)}|RNA2{r(U)p.r(U)p.m(U)p.r(A)p.r(A)p.r(G)p.r(A)p.r(G)p.r(A)p.r(G)p.r(A)p.r(C)p.m(U)p.r(G)p.r(G)p.r(G)p.r(G)p.r(A)p.r(G)p.r(T)p.r(T)}$$$RNA1{StrandType:ss}|RNA2{StrandType:as}$	68
RNA1{r(G)p.m(C)p.r(A)p.r(A)p.r(G)p.r(U)p.r(G)p.r(G)p.r(C)p.r(A)p.r(A)p.r(G)p.r(A)p.r(G)p.r(G)p.r(A)p.r(U)p.m(U)p.r(A)p.r(T)p.r(T)}|RNA2{m(U)p.r(A)p.r(A)p.r(U)p.r(C)p.r(C)p.r(U)p.r(C)p.r(U)p.m(U)p.r(G)p.r(C)p.m(C)p.r(A)p.r(C)p.r(U)p.m(U)p.r(G)p.r(C)p.r(T)p.r(T)}$$$RNA1{StrandType:ss}|RNA2{StrandType:as}$	68
RNA1{[lna](T)p.r(G)p.r(A)p.r(G)p.r(A)p.r(G)p.r(A)p.r(A)p.r(A)p.r(G)p.r(C)p.r(A)p.r(C)p.r(A)p.r(G)p.r(A)p.r(A)p.r(A)p.r(A)p.[lna](T)p.[lna](T)}|RNA2{r(U)p.r(U)p.r(U)p.r(U)p.r(C)p.r(U)p.r(G)p.r(U)p.r(G)p.r(C)p.r(U)p.r(U)p.r(U)p.r(C)p.r(U)p.r(C)p.r(U)p.r(C)p.r(A)p.d(T)p.d(T)}$$$RNA1{StrandType:ss}|RNA2{StrandType:as}$	70
RNA1{[s4r](A)p.[s4r](A)p.[s4r](A)p.[s4r](C)p.r(A)p.r(U)p.r(G)p.r(C)p.r(A)p.r(G)p.r(A)p.r(A)p.r(A)p.r(A)p.r(U)p.[s4r](G)p.[s4r](C)p.[s4r](C)p.[s4r](U)p.r(T)p.r(T)}|RNA2{r(C)p.r(A)p.r(G)p.r(C)p.r(A)p.r(U)p.r(U)p.r(U)p.r(U)p.r(C)p.r(U)p.r(G)p.r(C)p.r(A)p.r(U)p.r(G)p.r(U)p.[s4r](U)p.[s4r](U)p.r(T)p.r(T)}$$$RNA1{StrandType:ss}|RNA2{StrandType:as}$	87.7
RNA1{m(G)p.m(C)p.m(A)p.m(G)p.m(C)p.m(A)p.m(C)p.m(G)p.m(A)p.m(C)p.m(U)p.m(U)p.m(C)p.m(U)p.m(U)p.m(C)p.m(A)p.m(A)p.m(G)p.r(T)p.r(T)}|RNA2{m(C)p.m(U)p.m(U)p.m(G)p.m(A)p.m(A)p.m(G)p.m(A)p.m(A)p.m(G)p.m(U)p.m(C)p.m(G)p.m(U)p.m(G)p.m(C)p.m(U)p.m(G)p.m(C)p.r(T)p.r(T)}$$$RNA1{StrandType:ss}|RNA2{StrandType:as}$	0
RNA1{[fl2r](A)p.r(G)p.[fl2r](A)p.r(C)p.[fl2r](U)p.r(A)p.[fl2r](A)p.r(G)p.[fl2r](C)p.r(C)p.[fl2r](C)p.r(A)p.[fl2r](A)p.r(A)p.[fl2r](A)p.r(G)p.[fl2r](G)p.r(G)p.[fl2r](C)p.r(T)p.r(T)}|RNA2{r(G)p.r(C)p.r(C)p.r(C)p.r(U)p.r(U)p.r(U)p.r(U)p.r(G)p.r(G)p.r(G)p.r(C)p.r(U)p.r(U)p.r(A)p.r(G)p.r(U)p.r(C)p.r(U)p.r(T)p.r(T)}$$$RNA1{StrandType:ss}|RNA2{StrandType:as}$	26
RNA1{r(A)p.r(G)p.r(A)p.r(A)p.r(G)p.m(U)p.r(A)p.r(C)p.r(C)p.r(A)p.r(G)p.r(G)p.r(A)p.r(G)p.r(G)p.r(C)p.r(G)p.r(U)p.r(U)p.r(T)p.r(T)}|RNA2{r(A)p.r(A)p.r(C)p.r(G)p.r(C)p.r(C)p.r(U)p.r(C)p.r(C)p.r(U)p.r(G)p.r(G)p.m(U)p.r(A)p.r(C)p.r(U)p.r(U)p.r(C)p.r(U)p.r(T)p.r(T)}$$$RNA1{StrandType:ss}|RNA2{StrandType:as}$	69
